“Also recorded” adds a separate entry of the source. Where two headings read alike, the source gives them in different places.
Experiments:
Bcl-XL = molecular target: T1, Bcl-XL (Homo sapiens, UniProt Q07817); experiment: FPA competitive FITC-Bid BH3 peptide displacement, Bcl-XL; assay type: binding; conditions: 100 nM GST-Bcl-XL, 5 nM FITC-Bid BH3 peptide, read-out: IC50 (μM) for Gambogic acid
T1 construct: lacking their C-terminal transmembrane domains (last 20 amino-acids) (“ΔTM”); made in house; host or cells: E. coli XL-1 Blue (pGEX 4T-1)
T1 sequence (Q07817 1-213 limits assumed): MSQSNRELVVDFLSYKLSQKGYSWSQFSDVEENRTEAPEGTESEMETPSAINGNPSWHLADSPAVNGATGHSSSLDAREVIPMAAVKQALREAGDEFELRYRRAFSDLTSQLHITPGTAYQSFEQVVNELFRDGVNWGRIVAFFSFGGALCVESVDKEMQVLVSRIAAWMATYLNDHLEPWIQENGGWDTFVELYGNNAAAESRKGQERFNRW
Source text: (§1) (A) Structure of gambogic acid.
(§2) Fluorescence Polarization Assays (FPAs).
(§3) Competitive Peptide Displacement Assays.

Bcl-2 = molecular target: T2, Bcl-2 (Homo sapiens, UniProt P10415); experiment: FPA competitive FITC-Bid BH3 peptide displacement, Bcl-2; assay type: binding
T2 construct: lacking their C-terminal transmembrane domains (last 20 amino-acids) (“ΔTM”); made in house; host or cells: E. coli XL-1 Blue (pGEX 4T-1)
T2 sequence (P10415 1-219 limits assumed): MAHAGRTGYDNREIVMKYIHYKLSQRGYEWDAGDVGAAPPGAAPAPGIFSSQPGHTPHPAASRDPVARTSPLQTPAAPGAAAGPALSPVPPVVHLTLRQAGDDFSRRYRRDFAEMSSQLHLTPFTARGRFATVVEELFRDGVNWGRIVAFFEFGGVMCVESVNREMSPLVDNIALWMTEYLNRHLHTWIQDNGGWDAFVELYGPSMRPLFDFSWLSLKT
Source text: as §1, §2, §3

Bcl-W = molecular target: T3, Bcl-W (Homo sapiens, UniProt Q92843); experiment: FPA competitive FITC-Bid BH3 peptide displacement, Bcl-W; assay type: binding; conditions: 100 nM GST-Bcl-W, 5 nM FITC-Bid BH3 peptide, read-out: IC50 (μM) for Gambogic acid
T3 construct: lacking their C-terminal transmembrane domains (last 20 amino-acids) (“ΔTM”); made in house; host or cells: E. coli XL-1 Blue (pGEX 4T-1)
T3 sequence (Q92843 1-173 limits assumed): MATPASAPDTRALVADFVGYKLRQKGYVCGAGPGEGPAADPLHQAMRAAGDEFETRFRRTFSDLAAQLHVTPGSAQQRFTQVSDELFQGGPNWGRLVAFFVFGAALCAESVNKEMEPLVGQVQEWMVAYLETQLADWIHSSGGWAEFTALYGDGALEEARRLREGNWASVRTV
Source text: as §1, §2, §3

Bcl-B = molecular target: T4, Bcl-B (Homo sapiens, UniProt Q9HD36); experiment: FPA competitive FITC-Bid BH3 peptide displacement, Bcl-B; assay type: binding; conditions: 100 nM GST-Bcl-B, 5 nM FITC-Bid BH3 peptide, read-out: IC50 (μM) for Gambogic acid
T4 construct: lacking their C-terminal transmembrane domains (last 20 amino-acids) (“ΔTM”); made in house; host or cells: E. coli XL-1 Blue (pGEX 4T-1)
T4 sequence (Q9HD36 1-184 limits assumed): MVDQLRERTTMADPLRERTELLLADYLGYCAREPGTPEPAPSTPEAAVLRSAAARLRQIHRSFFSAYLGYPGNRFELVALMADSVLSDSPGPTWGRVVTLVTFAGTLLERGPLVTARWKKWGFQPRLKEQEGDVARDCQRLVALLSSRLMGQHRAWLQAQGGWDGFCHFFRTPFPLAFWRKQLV
Source text: as §1, §2, §3

Mcl-1 = molecular target: T5, Mcl-1 (Homo sapiens, UniProt Q07820); experiment: FPA competitive FITC-Bid BH3 peptide displacement, Mcl-1; assay type: binding; conditions: 100 nM GST-Mcl-1, 5 nM FITC-Bid BH3 peptide, read-out: IC50 (μM) for Gambogic acid
T5 construct: lacking their C-terminal transmembrane domains (last 20 amino-acids) (“ΔTM”); made in house; host or cells: E. coli XL-1 Blue (pGEX 4T-1)
T5 sequence (Q07820 1-330 limits assumed): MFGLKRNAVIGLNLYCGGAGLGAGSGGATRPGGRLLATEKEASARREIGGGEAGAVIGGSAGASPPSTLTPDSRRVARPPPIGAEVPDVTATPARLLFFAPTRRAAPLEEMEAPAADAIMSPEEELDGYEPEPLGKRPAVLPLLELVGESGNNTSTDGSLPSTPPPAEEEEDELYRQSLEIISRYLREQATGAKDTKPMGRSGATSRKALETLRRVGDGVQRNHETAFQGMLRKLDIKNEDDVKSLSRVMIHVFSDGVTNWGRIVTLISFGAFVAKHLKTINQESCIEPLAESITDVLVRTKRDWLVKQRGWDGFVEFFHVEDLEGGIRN
Source text: as §1, §2, §3

GST-Bcl-XL = molecular target: T6, GST-Bcl-XL (Homo sapiens, UniProt Q07817); experiment: TR-FRET assay, FITC-Bad BH3 peptide binding to GST-Bcl-XL; conditions: 10 nM GST-Bcl-XL, 10 nM FITC-Bad BH3 peptide, read-out: apparent IC50, inhibition of FITC-Bad BH3 peptide binding
T6 construct: lacking their C-terminal transmembrane domains (last 20 amino-acids) (“ΔTM”); made in house; host or cells: E. coli XL-1 Blue (pGEX 4T-1)
T6 sequence (Q07817 1-213 limits assumed): as the sequence (Q07817 1-213 limits assumed) above
Protocol: (A) Binding of GST-Bcl-XL to FITC-BH3 peptide was assayed by TR-FRET. The final reaction mixtures contain 10 nM of FITC-Bad BH3 peptide, 2 nM of anti-GST-Turbium, and various concentrations of GST-Bcl-XL proteins in PBS buffer containing 0.005% Tween 20. (B) Analysis of GA competition with BH3 peptide for Bcl-XL binding by TR-FRET. Reaction mixtures of final 20 μl volume contain 2 μl of various concentrations of GA with 10 nM FITC-Bad BH3 peptide, 2 nM anti-GST-Terbium, and 10 nM GST-Bcl-XL protein in PBS buffer containing 0.005% Tween 20. The mixtures are incubated for 30 min at room temperature. TR-FRET signals were measured using excitation at 330 nm, emission for FITC signal at 490 nm, and emission for terbium signal at 520 nm. Data are presented as 520 nm/490 nm ratio (mean±std dev; n=3).
Time-Resolved-Fluorescence Resonance Energy Transfer (TR-FRET) Assays. For TR-FRET assays, GST-Bcl-XL and anti-GST-terbium (Invitrogen) were mixed together with the FITC-Bad BH3 peptide in PBS containing 0.005% tween 20 in 96 well plates in a total volume of 20 μl per well. […] TR-FRET signals were measured with a SpectraMax M5 plate reader (Molecular Devices) using the following settings: excitation at 330 nm, emission for FITC signal at 490 nm, and emission for terbium signal at 520 nm. […]

BIR3 of XIAP = experiment: FPA, rhodamine-SMAC peptide binding to BIR3 of XIAP; conditions: not shown
Hsp70 = Hsp70 (Homo sapiens, UniProt P0DMV8); experiment: FPA, FITC-ATP binding to Hsp70; conditions: not shown
Sequence of Hsp70 (P0DMV8 whole entry): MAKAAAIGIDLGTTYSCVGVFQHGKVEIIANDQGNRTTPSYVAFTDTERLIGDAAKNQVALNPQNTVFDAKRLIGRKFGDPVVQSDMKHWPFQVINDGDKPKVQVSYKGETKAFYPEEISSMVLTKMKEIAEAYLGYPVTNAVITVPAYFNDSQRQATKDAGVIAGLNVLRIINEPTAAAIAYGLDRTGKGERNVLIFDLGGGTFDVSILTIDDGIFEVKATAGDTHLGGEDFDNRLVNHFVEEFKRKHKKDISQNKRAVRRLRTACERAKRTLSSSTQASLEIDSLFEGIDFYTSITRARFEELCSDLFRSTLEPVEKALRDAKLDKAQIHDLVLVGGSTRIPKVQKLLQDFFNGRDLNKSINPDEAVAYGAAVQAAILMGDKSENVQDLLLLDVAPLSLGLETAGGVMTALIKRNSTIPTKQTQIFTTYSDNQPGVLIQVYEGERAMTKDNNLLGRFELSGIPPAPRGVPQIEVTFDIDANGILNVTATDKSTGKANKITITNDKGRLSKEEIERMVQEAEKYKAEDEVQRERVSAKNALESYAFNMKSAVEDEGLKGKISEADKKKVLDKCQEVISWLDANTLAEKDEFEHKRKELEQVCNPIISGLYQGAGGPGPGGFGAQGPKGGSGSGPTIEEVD

[1] = tested on: anti-apoptotic Bcl-2-family proteins (Bcl-2, Bcl-XL, Bfl-1, Bcl-W, Mcl-1); experiment: tBid-induced SMAC release from isolated HeLa mitochondria; assay type: biochemical, human
Protocol: Mitochondria Purification and Protein Release Assays. HeLa cells were pelleted by centrifugation, and then washed once in HM buffer (10 mM HEPES, pH 7.4, 250 mM mannitol, 10 mM KCl, 5 mM MgCl2, 1 mM EGTA), containing 1 mM PMSF and a mixture of protease inhibitors (Roche Molecular Biochemicals). The cell pellet was then homogenized in HM buffer by 50 strokes of a dounce homogenizer, using a B-type pestle. The homogenate was centrifuged twice at 600 g for 5 min to remove nuclei and debris. The resulting supernatant was centrifuged at 10,000 g for 10 min, and the resulting mitochondria-containing pellet was washed twice with the HM buffer.
For mitochondrial protein release assays, 10 μl of mitochondria (50 μg) were added into a final volume of 50 μl HM buffer containing gambogic acid, tBid or tBid pre-incubated with gambogic acid or Bcl-2 family proteins at 30° C. for 15 min. The reactions were further incubated at 30° C. for 40-60 min, then mitochondria were pelleted by centrifugation and the supernatants were collected, boiled in Laemmli sample buffer, and analyzed by SDS-PAGE/immunoblotting using anti-SMAC antibody (Zhai et al., J. Biol. Chem. 280:15815-15824, 2005).
GA neutralizes activity of Bcl-2-family proteins in vitro. An active, N-terminally truncated form of the pro-apoptotic BH3-containing protein Bid (tBid) induces release of apoptogenic proteins such as SMAC from isolated mitochondria in vitro (Becattini et al., Chem. Biol. 11:1107-1117, 2004; Zhai et al., J. Biol. Chem. 280:15815-15824, 2005; Luciano et al., J. Biol. Chem. 280:15825-15835, 2005). […] Samples were centrifuged to generate supernatants that were analyzed by SDS-PAGE/immunoblotting using anti-SMAC antibody. […] Complete restoration was typically achieved with 5 μM GA, representing an approximately 10:1 molar excess of GA relative to anti-apoptotic Bcl-2-family proteins.

[2] = tested on: Jurkat T-cell acute lymphoblastic leukemia; experiment: Apoptosis, Annexin V/PI staining, Jurkat; assay type: cell-based; conditions: Homo sapiens, within 20-24 hrs, read-out: concentration required to induce apoptosis of 50% of the cells
Protocol: (§4) Gambogic acid was used to treat HL-60 (black symbols) or Jurkat (white symbols) cells at concentrations of 0, 0.1, 0.2, 0.5, 2, 5 μM (from left to right).
(§5) Cell Culture, Transfection, and Apoptosis Assays.
(§6) GA overcomes cytoprotection of Bcl-2 in leukemia cells. GA has cytotoxic activity against various tumor cell lines in culture and induces apoptosis (Zhang et al., Bioorg. Med. Chem. 12:309-317, 2004; Zhao et al., Biol. Pharm. Bull. 27:998-1003, 2004). We confirmed the apoptosis-inducing activity of GA using Jurkat T-cell acute lymphoblastic leukemia and HL-60 acute promyelomonocytic leukemia cell lines, using Annexin V/propidium iodide (PI) staining, counting Annexin V+/PT− cells as apoptotic (FIG. 3). The concentration of GA required to induce apoptosis of 50% of the cells within 20-24 hrs was ˜0.2 μM and ˜0.5 μM for Jurkat and HL-60, respectively.

[3] = tested on: HL-60 acute promyelomonocytic leukemia; experiment: Apoptosis, Annexin V/PI staining, HL-60; assay type: cell-based; conditions: Homo sapiens, HL-60, within 20-24 hrs, read-out: concentration required to induce apoptosis of 50% of the cells
Protocol: as §4, §5, §6

[4] = tested on: prostate cancer cell line PPC1; experiment: Pro-caspase-3 processing, immunoblot, PPC1; assay type: cell-based; conditions: PPC1, 20 hrs, 0 to 10 μM
Protocol: To determine GA's affect on processing of pro-caspase-3, a marker of apoptosis, cells of the prostate cancer cell line PPC1 were treated with gambogic acid at concentrations from 0 to 10 μM. After 20 hrs, the cells were collected and the cell lysates were analyzed by SDS-PAGE/immunoblotting using anti-caspase 3 antibody. GA induced clearly detectable proteolytic processing of pro-caspase-3 at concentrations≧2 μM.

[5] = tested on: Bcl-2 over-expressing HL-60 cells; experiment: Cytotoxicity in NEO-control vs Bcl-2 over-expressing HL-60 cells; assay type: cell-based
Source text: Data are representative of at least 3 independent experiments.
as §5
We tested the cytotoxic activity of GA against HL-60 cells that had been stably transfected with NEO-control or Bcl-2-expression plasmids (Konopleva et al., Blood 95:3929-3938, 2000).

bax+/+ bak+/+ MEFs = experiment: Cytotoxicity in wild-type MEFs; assay type: cell-based, mouse; conditions: 20 hrs
Source text: as §5
GA-induced cytotoxicity is only partly Bcl-2-dependent. Anti-apoptotic Bcl-2-family proteins suppress mitochondria-initiated cell death by inhibiting pro-apoptotic Bcl-2 members Bax and Bak (Kroemer and Reed, Nat. Med. 6:513-519, 2000; Reed, Am. J. Pathol. 157:1415-1430, 2000; Li et al., Cell 116 (2 Suppl.):S57-59, 2 p. following S59). Consequently, when cells are genetically engineered to lack Bax and Bak, then Bcl-2 and related cytoprotective proteins no long display an anti-apoptotic phenotype (Wei et al., Science 292:727-730, 2001). Cells doubly deficient in Bax and Bak therefore provide a context for assessing the mechanism of GA-induced toxicity. GA killed transformed mouse fibroblasts (MEFs) generated from bax+/+ bak+/+ embryos in a concentration-dependent manner (FIG. 6A). […] We conclude therefore that GA induces cytotoxicity through mechanisms that are only partly dependent on Bcl-2-family proteins.

bax−/− bak−/− MEFs = experiment: Cytotoxicity in bax-/- bak-/- MEFs; assay type: cell-based, mouse; conditions: 20 hrs; listed as GA
tumor cell lines = tumor cell lines in culture; cited from earlier work
[6] = tested on: Bax, Bcl-2, transferrin receptor; conditions: cited from earlier work
dividing cells = conditions: cited from earlier work
[7] = rats; cited from earlier work
Bfl-1 = molecular target: T7, Bfl-1 (Homo sapiens, UniProt Q16548); experiment: FPA competitive FITC-Bid BH3 peptide displacement, Bfl-1 (also HTS); conditions: for activity in BH3 displacement assays: FPA, FITC-Bid BH3 peptide, compared with GA
T7 sequence (Q16548 1-155 limits assumed): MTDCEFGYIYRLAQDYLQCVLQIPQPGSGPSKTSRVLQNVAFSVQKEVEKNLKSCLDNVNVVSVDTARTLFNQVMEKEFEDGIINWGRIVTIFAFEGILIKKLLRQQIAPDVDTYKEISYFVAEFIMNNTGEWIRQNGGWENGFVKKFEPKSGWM

Jurkat cells [8] = experiment: Cytotoxicity of GA analogs, live cells by Annexin V/PI, Jurkat; conditions: 20 hrs, 0-50 μM
Jurkat cells [9] = tested on: Jurkat cells

SMILES: CC(C)=CCC[C@]1(C)C=Cc2c(O)c3c(c(CC=C(C)C)c2O1)O[C@]12C(=C[C@@H]4C[C@H]1C(C)(C)O[C@@]2(C/C=C(/C)C(=O)O)C4=O)C3=O [Gambogic acid]
- IC50 (Bcl-XL): 1.47 µM
- IC50 (Bcl-2; 100 nM GST-Bcl-2, 5 nM FITC-Bid BH3 peptide, read-out: IC50 (μM) for Gambogic acid): 1.21 µM
- sensitivity to displacement of FITC-BH3 peptide among the six proteins (Bcl-2; FIG. 1): the least
- IC50 (Bcl-W): 2.02 µM
- IC50 (Bcl-B): 0.66 µM
- IC50 (Mcl-1): 0.79 µM
- IC50 (GST-Bcl-XL): 1500 nM
- inhibition of rhodamine-SMAC peptide binding (BIR3 of XIAP): did not inhibit
- inhibition of FITC-ATP binding (Hsp70): did not inhibit
- concentration for complete restoration of tBid-induced SMAC release ([1]; 20 ng tBid, 2 μg Bcl-2-family protein, 50 μg HeLa mitochondria): 5 µM
- restoration of tBid-induced SMAC release ([1]; recombinant Bcl-2, Bcl-XL, Bfl-1, Bcl-W or Mcl-1 added, listed as GA): neutralizes their suppressive effects on mitochondria in a concentration-dependent manner; also recorded: restored tBid-induced SMAC release in a concentration-dependent manner
- tBid-induced release of SMAC ([1]; recombinant Bcl-2-family proteins not added): enhanced
- EC50 [2]: ~200 nM
- EC50 [3]: ~500 nM
- concentration giving clearly detectable proteolytic processing of pro-caspase-3 [4]: ≥ 2 µM
- effect of Bcl-2 over-expression on cytotoxicity [5]: reduced the sensitivity
- killing of wild-type MEFs (bax+/+ bak+/+ MEFs): killed
- killing of bax−/− bak−/− MEFs (bax−/− bak−/− MEFs): killed; also recorded: retained cytotoxic activity
- concentration required for killing 50% of cells (LD50) (tumor cell lines): ~1 µM
- Bax protein levels [6]: increases in Bax protein levels
- Bcl-2 protein levels [6]: reductions in Bcl-2 protein levels
- transferrin receptor internalization [6]: suppressing transferring receptor internalization
- cell cycle arrest (dividing cells): induces G2/M-phase arrest
- tolerability [7]: well tolerated
- IC50 (Bfl-1): 1060 nM
- suppression of BH3 peptide binding in HTS (Bfl-1; library screen, 10 μM compound): ≥ 50%

SMILES: CC(C)=CCCC1(C)C=Cc2c(O)c3c(c(CC=C(C)C)c2O1)OC12C(=CCCC1C(C)(C)O[C@@]2(C/C=C(\C)C(=O)O)C(=O)O)C3=O (stereo partly shown) [Garcinolic acid]
- cytotoxic activity against cultured leukemia cells (Jurkat cells [8]): non-toxic
- activity in BH3 displacement assays (Bfl-1): greatly reduced activity

SMILES: CN[C@@H]1C[C@H]2O[C@@](C)([C@@H]1OC)n1c3ccccc3c3c4c(c5c6ccccc6n2c5c31)C(=O)NC4 [staurosporine, reference compound]
- effect of Bcl-2 over-expression on cytotoxicity ([5]; HL-60 Bcl-2 vs NEO-control, 8 hrs): block to apoptosis

SMILES: CC(C)=CCC[C@]1(C)C=Cc2c(O)c3c(c(CC=C(C)C)c2O1)O[C@]12C(C[C@@H]4CC1C(C)(C)O[C@@]2(C/C=C(/C)C(=O)O)C4O)C3=O (stereo partly shown) [tetrahydro-GA]
- cytotoxic potency relative to GA (fold less potent) (Jurkat cells [9]): ~50 fold
- activity in BH3 displacement assays (Bfl-1): greatly reduced activity

Source: patent publication US20090163577A1, “METHODS AND COMPOSITIONS FOR ANTAGONIZING ANTI-APOPTOTIC Bcl-2-FAMILY PROTEINS” (Burnham Institute for Medical Research, priority 2007, published 2009)
